The target in this assay is IGF1-receptor (Homo sapiens, UniProt P08069). The assay is described as follows: IGF1-Receptor Tyrosine Kinase Assay. To be noted: in vitro kinase assay; ATP 25 μM; FL-peptide 1.5 μM; IGF1-Receptor 14 nM; 60 min room temperature; Caliper LabChip 3000; read-out: IGF1R kinase IC50. In kind it is biochemical. The method, then:
A IGF1-Receptor Tyrosine Kinase Assay
The assays were performed in U-bottom 384-well plates. The final assay volume was 30 μl prepared from 15 μl additions of enzyme and substrates (fluoresceinated IGF1R substrate peptide and ATP) and test compounds in assay buffer (100 mM HEPES pH 7.4, 10 mM MnCl2, 0.015% Brij35 and 4 mM DTT). The reaction was initiated by the combination of IGF1-receptor with substrates and test compounds. The reaction was incubated at room temperature for 60 min. and terminated by adding 30 μl of 35 mM EDTA to each sample. The reaction mixture was analyzed on the Caliper LabChip 3000 by electrophoretic separation of the fluorescent substrate and phosphorylated product Inhibition data were calculated by comparison to no enzyme control reactions for 100% inhibition and vehicle-only reactions for 0% inhibition. The final concentration of reagents in the assays are ATP, 25 μM; FL-peptide, 1.5 μM; IGF1-Receptor, 14 nM; and DMSO, 1.6%. Dose response curves were generated to determine the concentration required inhibiting 50% of kinase activity (IC50). Compounds were dissolved at 10 mM in dimethylsulfoxide (DMSO) and evaluated at eleven concentrations, each in duplicate. IC50 values were derived by non-linear regression analysis.
Chain of IGF1-receptor (P08069 31-1367): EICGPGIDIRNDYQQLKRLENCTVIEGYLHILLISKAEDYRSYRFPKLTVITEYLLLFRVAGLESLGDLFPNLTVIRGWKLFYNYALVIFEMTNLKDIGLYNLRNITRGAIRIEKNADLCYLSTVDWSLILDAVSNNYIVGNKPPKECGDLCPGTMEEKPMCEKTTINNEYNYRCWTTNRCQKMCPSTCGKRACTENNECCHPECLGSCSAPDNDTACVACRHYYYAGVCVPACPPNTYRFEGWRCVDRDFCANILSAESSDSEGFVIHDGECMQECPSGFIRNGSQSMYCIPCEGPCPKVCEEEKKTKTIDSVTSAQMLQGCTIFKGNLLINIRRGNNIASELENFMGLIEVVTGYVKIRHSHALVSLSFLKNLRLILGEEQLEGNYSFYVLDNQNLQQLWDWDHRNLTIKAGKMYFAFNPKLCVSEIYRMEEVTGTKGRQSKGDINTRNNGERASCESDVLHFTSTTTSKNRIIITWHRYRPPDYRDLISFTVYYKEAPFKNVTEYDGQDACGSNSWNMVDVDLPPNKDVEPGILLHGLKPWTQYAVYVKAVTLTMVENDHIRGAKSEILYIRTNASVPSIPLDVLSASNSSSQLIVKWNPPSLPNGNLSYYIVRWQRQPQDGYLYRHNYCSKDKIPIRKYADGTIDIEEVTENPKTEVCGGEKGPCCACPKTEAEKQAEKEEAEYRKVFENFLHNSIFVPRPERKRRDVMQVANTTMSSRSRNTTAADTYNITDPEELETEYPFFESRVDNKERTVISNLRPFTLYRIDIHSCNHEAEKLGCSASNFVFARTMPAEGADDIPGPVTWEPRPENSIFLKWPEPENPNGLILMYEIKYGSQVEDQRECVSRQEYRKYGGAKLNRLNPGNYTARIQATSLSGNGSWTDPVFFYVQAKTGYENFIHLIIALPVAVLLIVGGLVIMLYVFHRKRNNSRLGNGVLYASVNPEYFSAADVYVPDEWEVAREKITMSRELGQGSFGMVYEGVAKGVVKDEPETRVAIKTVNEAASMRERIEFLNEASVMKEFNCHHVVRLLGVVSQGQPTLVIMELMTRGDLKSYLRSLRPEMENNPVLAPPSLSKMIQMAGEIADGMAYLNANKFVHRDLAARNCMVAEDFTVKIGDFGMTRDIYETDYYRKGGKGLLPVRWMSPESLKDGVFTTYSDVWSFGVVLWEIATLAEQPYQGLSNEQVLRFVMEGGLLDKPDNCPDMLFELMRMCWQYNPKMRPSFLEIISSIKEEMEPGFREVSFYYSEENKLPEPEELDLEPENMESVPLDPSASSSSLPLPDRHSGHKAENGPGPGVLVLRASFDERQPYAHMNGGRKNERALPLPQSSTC
A word on the IC50: it is the concentration that gives 50% inhibition. On to `O=C(Nc1ccc(F)nc1)N1CCCCN1c1nc(Nc2cc(C3CC3)n[nH]2)c2cccn2n1` [Example 2], for which the IC50 worked out at 0.02 µM.

`O=C(c1nccs1)N1CCCCN1c1nc(Nc2cc(C3CC3)n[nH]2)c2cccn2n1` [Example 4]: the IC50 is 0.062 µM.

Consider `O=C(Nc1nccs1)N1CCCCN1c1nc(Nc2cc(C3CC3)n[nH]2)c2cccn2n1` [Example 3], for which the IC50 is 0.002 µM.

Values taken from US8212031B2, “Pyrrolotriazine kinase inhibitors” (Bristol-Myers Squibb Company, priority 2008, dated 2012).
